{
  "source": "patent US20180369186A1",
  "about": "“METHOD FOR MODULATING AUTOPHAGY AND APPLICATIONS THEREOF” (JAWAHARLAL NEHRU CENTRE FOR ADVANCED SCIENTIFIC RESEARCH, priority 2015, published 2018)",
  "key": {"Pot1-GFP (peroxisomes)": {"test_system": "Pot1-GFP (peroxisomes)", "experiment": "Pot1-GFP pexophagy assay", "format": "cell-based, S. cerevisiae", "details": "starvation medium; vs untreated cells", "procedure": "Pot1-GFP positive strains are allowed to grow till the A600 reached 0.8-1 in YPD. Peroxisome biogenesis is induced by growing these cells in oleate medium (0.1% oleate, 0.5% Tween-40, 0.25% yeast extract, 0.5% peptone, and 5 mM phosphate buffer) for 12hours. Cells are harvested, washed twice to remove traces of oleate and transferred to starvation medium without nitrogen, at inoculum density A600 3, to induce pexophagy. Cells are collected at various time intervals after pexophagy induction and processed by TCA method.\nPot1-GFP positive strains are allowed to grow in yeast extract peptone dextrose (YPD) (2% dextrose, 2% peptone and 1% yeast extract) till the Absorbance at 600 nm reaches 0.6-0.8. Peroxisome biogenesis is induced by growing these cells in YPG medium (1% yeast extract, 2% peptone, 3% glycerol) for 12 hours.\nCells are harvested, washed twice to remove traces of oleate and transferred to starvation medium with and without Acacetin, at. inoculum density Absorbance at 600 nm 3/ml, to induce pexophagy. Cells are collected at various time intervals after pexophagy induction and processed by TCA precipitation."}, "[1]": {"test_system": "Salmonella typhimurium SL1344", "experiment": "Burden assay: intracellular Salmonella CFU in U1752 and HeLa cells", "format": "cell-based", "procedure": "U1752 cell line and HeLa cell line are infected with Salmonella typhimurium SL1344, and grown overnight in micro-aerophilic condition, at an MOI of 400 for one hour. The cells are treated with media containing Gentamycin at the concentration of 100 μg/ml for 2 hours to kill the extracellular bacteria. The cells are then treated with compounds and incubated for ?hours to 4 hours. At the end, the cells are lysed using lysis buffer (0.1% SDS, 1% Triton X-100, 1× PBS) and the intercellular Salmonella is plated and the CFU is counted. The CFU of Salmonella in the Acacetin treated cells is reduced by almost 2 fold compared to that of the untreated cells. Statistical analysis of the results is done using Graphpad prism—two tailed T test (FIG. 12)"}, "[2]": {"test_system": "mcherry-Salmonella typhimurium SL1344", "experiment": "Live cell microscopy of Salmonella replication in HeLa cells", "format": "cell-based", "details": "GFP-LC3 transfected HeLa; vs untreated samples", "procedure": "GFP-LC3 transfected HeLa cells is infected with mcherry-Salmonella typhimurium SL1344 for 15 minutes (MOI-400) and is treated with gentamycin for 10 minutes. The cells are then washed with 1× PBS and changed to either only media (a) and media containing Acacetin (b) and imaged by FV10i-olympus confocal live cell imaging microscope, using 60× water immersion lens, with confocality aperature set to 1.0. Images are taken at an interval of 15 minutes. (c) The intensity of the Red channel denoting the mcherry tagged S. typhimuriumis measured using image J—Stacks T function (intensity of red channel signifies the replication of the S. typhimurium over time). The replication of Salmonella in Acacetin treated samples is restricted as compared to that of untreated samples (FIG. 15)"}, "[3]": {"test_system": "mcherry Salmonella typhimurium", "experiment": "Co-localization of GFP-LC3 / p62 with mcherry Salmonella in HeLa cells", "format": "cell-based, human", "procedure": "HeLa cells are transfected with GFP-LC3 using lipofectamine 3000. After 24 hours, cells are infected with Salmonella typhimurium WT strain SL1344 with an MOI of 400 for 15 minutes followed by gentamycin treatment at the concentration of 100 μg/ml for 10 minutes to kill the extracellular bacteria.\nThe cells are treated with and without Acacetin and incubated for different time points (1, 2, 4 and 6 hours) at 37° C. Quantitation of LC3 co-localization with Salmonella typhimurium SL1344 is done using ImageJ-Cell counter option (FIG. 14), to check whether with compound (Acacetin) treatment more autophagy machinery is recruited towards the bacteria."}, "[4]": {"test_system": "Salmonella typhimurium SL1344", "experiment": "Growth curve of Salmonella typhimurium SL1344", "format": "cell-based", "details": "Luria Broth, 10 hours", "procedure": "A single colony of Salmonella typhimurium WT strain SL1344 grown overnight at 37° C. is diluted in Luria Broth media to get an O.D of 0.2. The diluted culture is used for treatments with Acacetin and Acacetin with gentamycin (100 μg/ml). The growth curve of the culture is obtained by measuring the absorbance at 600 nm using varioskan Flash Multiplate Spectrophotometer at 300 rpm and O.D taken at every 30 minutes interval for 10 hours is plotted using GraphPad Prism."}, "[5]": {"test_system": "HeLa cells (autophagosomes and autolysosomes)", "experiment": "Tandem RFP-GFP-LC3B (traffic light) assay in HeLa cells", "format": "cell-based, human", "details": "ptf-LC3 transfected HeLa; 2 hours", "procedure": "Transfection is done on a 60 mm dish with HeLa cells at 60-70% confluency. Cells were transfected with tandem RFP-GFP-MAP1LC3B construct (Addgene plasmid #21074) using 5 μl of Lipofectamine 2000 (11668-019, Invitrogen) and 2.5 μg of DNA (2:1 ratio) diluted in 100 μl of OPTI-MEM (31985-070, Invitrogen) separately. 72 hours after transfection cells are either left untreated or treatment with various concentrations of Bay11-7082 ZPCK is done for 2 hours. Starvation is induced by treating cells with Earle's balanced salt solution (EBBS). After treatment, cells are fixed in 4% paraformaldehyde and permeabilized using 0.25% Triton X-100, The coverslip is mounted with […] antifade reagent (H-1000, Vector laboratories). Imaging for HeLa cells is carried out using Delta vision microscope (Olympus 60×/1.4, Plan ApoN, excitation and emission filter Cy5, FITC and TRITC, polychroic Quad).\nFor tandem RFP-EGFP-LC3 assay, sub-confluent cells are seeded in 60 mm dishes, transfected with ptf LC3 construct and allowed to express for 24 h. Later, cells are trypsinized, reseeded (10^5 cells) and allowed to attach on cover slips in a 12 well plate.\nFor mammalian cell microscopy, after 2 h of treatment, coverslips are fixed using 4% paraformaldehyde (PFA) (Sigma) and permeabilized using Triton X-100 (0.2%, HiMedia). Coverslips are mounted using antifade, Vectashield (Vector laboratories). For antibody staining, coverslips are blocked in 5% BSA for 1 h, incubated in primary antibody overnight and subsequent probing with fluorescent conjugated antibody. Coverslips are mounted using antifade, Vectashield (Vector laboratories).\nImages are acquired using DeltaVisionElitewidefield microscope (API, GE) with following filters: DAPI (390/18 and 435/48), FITC (490/20 and 529/38), TRITC (542/27 and 594/45) and Cy5 (632/22 and 676/34). Images are processed using DV SoftWoRX software. Autophagosome (yellow) and autolysosome (red) are counted using Cell Counter plug-in in ImageJ software (NIH) and graphically represented as fold difference versus untreated (FIG. 3E).\nSub-confluent HeLa and/or SH-SY5Y cells are seeded into 60 mm cell culture dishes, then transfected with ptf LC3 construct and/or siRNA and allowed to express for 48 h. Cells are trypsinized, seeded again on poly-D-lysine coated cover slips in a 12 or 24 well plates and allowed to attach. After appropriate treatments, the coverslips containing cells are processed for imaging. For immunofluorescent antibody staining, the cover slips are incubated in primary antibody at 4° C. for overnight followed by secondary antibody incubation at room temperature.\nFor imaging the mammalian cells, after appropriate treatments, coverslips containing cells are fixed using 4% paraformaldehyde (PFA) (Sigma) and then permeabilized using Triton X-100 (0.2%, HiMedia). On slide, coverslips are mounted using antifade, Vectashield mounting medium (Vector laboratories). For antibody staining, coverslips are blocked using 5% BSA for 1 h at room temperature, then incubated with primary antibody at 4° C., overnight and then subsequently probed with corresponding fluorescent dye conjugated secondary antibody."}},
  "data": [
    {"compound": "COc1ccc(-c2cc(=O)c3c(O)cc(O)cc3o2)cc1", "note": "[Acacetin, 5,7-dihydroxy-2-(4-methoxyphenyl)chromen-4-one]", "values": [
      {"measurement": "accumulation of free GFP over time (pexophagy)", "setting": "Pot1-GFP (peroxisomes)", "value": "enhanced accumulation of free GFP"},
      {"measurement": "functionality in Atg5 KO HeLa cell line", "setting": "[1]; Atg5 KO HeLa", "value": "non-functionality"},
      {"measurement": "reduction of CFU of intracellular Salmonella vs untreated", "setting": "[1]; U1752 and HeLa cell lines, MOI 400", "value": "~2", "unit": "fold"},
      {"measurement": "replication of Salmonella (red channel intensity)", "setting": "[2]", "value": "restricted"},
      {"measurement": "temporal recruitment of LC3 to mcherry Salmonella typhimurium", "setting": "[3]", "value": "increases temporal recruitment of LC3"},
      {"measurement": "temporal recruitment of p62 to mcherry Salmonella typhimurium", "setting": "[3]", "value": "increased temporal recruitment of p62"},
      {"measurement": "anti-microbial activity against Salmonella typhimurium SL1344", "setting": "[4]", "value": "does not have any anti-microbial activity"},
      {"measurement": "number of autolysosomes (red dots)", "setting": "[5]", "value": "increase in the number of autolysosomes"}
    ]}
  ]
}
